Data set [1] deals with diabetic Sprague Dawley rats injected with lipopolysaccharide from Porphyromonas gingivalis. Briefly: LPS-induced periodontitis (alveolar bone loss, root/enamel ratio) in streptozotocin diabetic rats fed ARI diets. The class given is in vivo, rat. As to conditions: for ratio of exposed root to enamel area, LPS side: LPS injected (right) side; for ratio of exposed root to enamel area, LPS side / ratio of exposed root to enamel area, PBS side: mean±S.E.M.; for ratio of exposed root to enamel area, PBS side: PBS injected (left, internal control) side. Here is the method: A group of 80 approximately 81-100 g male Sprague Dawley rats were utilized for this study. Diabetes was induced in 40 of these rats by tail vein injection of 75 mg/kg of streptozotocin. After 3 days, blood glucose (BG) levels in blood obtained from tail vein lacerations were analyzed with a commercial glucometer (Freestyle by TheraSense, Alameda, Calif.). Each rat with BG levels <300 mg/dL were reinjected with streptozotocin. Again, BGs were measured after 3 days, and the procedure was repeated a third time for remaining rats with BGs <300 mg/dL.
(§1) All rats with blood glucose levels >300 mg/dL were then equally divided into 4 groups. The first diabetic group of 8 rats received standard rat diet (BioServe), the second received similar rat diet containing 0.015% of tolrestat, the third group received similar diet containing 0.0125% imirestat, and the fourth group received similar diet containing 0.08% quercetin. Experimental diets were initiated 10 days following initial streptozotocin injections and continued for 10 weeks until the studies were terminated. Non-diabetic age-matched rats were also added as additional non-diabetic controls. These consisted of 4 groups of 8 rats each as follows: an untreated non-diabetic group received standard rat diet, the second control group received similar rat diet containing 0.015% of tolrestat, the third control group received similar diet containing 0.0125% imirestat, and the fourth control group received similar diet containing 0.08% quercetin.
A maximum of 3 rats were housed per cage. Weekly consumption of diet/cage and body weights of each cage occupant was measured throughout the study. Drugs diets were prepared by adding the appropriate weight of drug to 3 kg portions of standard rat chow as follows. The weighed drug dissolved in 400 mL of ethanol was uniformly sprayed onto a monolayer of the rat chow. After the upper layer of chow was uniformly wetted, the chow was mixed and again formed into a monolayer, and the procedure was repeated until the entire drug solution was utilized. Following overnight oven drying to ensure that all solvent was removed, weighed amounts of diet were administered to each appropriate group of animals.
(§2) Forty-four days after initiation of diets, each rat was anesthetized with 4% isoflurane vapor in an induction chamber. Each rat was then placed on its back and the palatal gingiva between the first and second maxillary molars on the right side was injected with 10 μL of a phosphate-buffered saline (PBS) solution containing 1 mg/mL lipopolysaccharide LPS from Porphyromonas gingivalis (InvivoGen, San Diego, Calif.) using an insulin syringe equipped with a blunted edge 30-gauge needle to induce the formation of periodontitis. As a control, 10 μL of PBS was similarly injected into the left side of the jaw. This injection was followed by two additional injections at 48-hour intervals. Twenty-four days after the final injection, all rats were euthanized with carbon dioxide gas. The heads were decapitated with a guillotine and frozen for subsequent defleshing. Blood from each rat was obtained by heart puncture and HbA1c levels were measured using the Metrika A1cNOW Plus System Test Strips (Fisher Healthcare).
Each thawed head was manually defleshed using standard dental instruments by Dr. James O'Meara, Assoc. Professor of General Dentistry at Creighton University of Omaha, Nebr. The maxillary area was separated from the remaining skull using bone cutters, and each defleshed left and right maxillary alveolus with molars were stored in PBS buffer. Finally, all cleaned maxillary alveoli were placed in 3% aqueous peroxide solution overnight and air dried. They were then stained in 5% aqueous toluidine blue to identify the cemento-enamel junction (CEJ) on the molars. After air drying, each stained preparation was examined under a dissecting microscope and cleaned of any remaining flesh particles using the tip of a 20-gauge needle. […]

Data set [2] deals with non-diabetic Sprague Dawley rats injected with lipopolysaccharide from Porphyromonas gingivalis. Briefly: LPS-induced periodontitis (alveolar bone loss, root/enamel ratio) in non-diabetic rats fed ARI diets. The class given is in vivo, rat. As to conditions: for ratio of exposed root to enamel area, LPS side / ratio of exposed root to enamel area, PBS side: non-diabetic rats; for ratio of exposed root to enamel area, LPS side: first value of 'LPS and PBS sides ... respective ratios'; for ratio of exposed root to enamel area, PBS side: second value of 'LPS and PBS sides ... respective ratios'; for difference in the ratios between the LPS and PBS sides: normal (non-diabetic) rats, FIG. 7. Here is the method: as §1, §2
Each thawed head was manually defleshed using standard dental instruments by Dr. James O'Meara, Assoc. Professor of General Dentistry at Creighton University of Omaha, Nebr. The maxillary area was separated from the remaining skull using bone cutters, and each defleshed left and right maxillary alveolus with molars were stored in PBS buffer. Finally, all cleaned maxillary alveoli were placed in 3% aqueous peroxide solution overnight and air dried. They were then stained in 5% aqueous toluidine blue to identify the cemento-enamel junction (CEJ) on the molars. After air drying, each stained preparation was examined under a dissecting microscope and cleaned of any remaining flesh particles using the tip of a 20-gauge needle. Each palatal preparation was then placed onto a 20 mm petri dish containing ultrafine chromatography grade silica and a mm ruler. The maxilla-molar area palatal sides were then photographed using a PAXcam2+ USB2 Digital Microscope Camera attached to a Zeiss dissection microscope at 40' magnification. 2.0 MP images were captured with 1616×1216 image resolution. The images were analyzed using Pax-it software (Paxcam, Chicago, Ill.). Care was taken to obtain images with consistent camera angles.
In each image the two molars between which the injections were made were analyzed. The exposed side of each molar was manually outlined along with the area encompassed by the cemento-enamel junction (CEJ) and exposed root area. To facilitate differentiation of the exposed root area and the CEJ, each photograph was photo-enhanced as required using sharpening or desaturating techniques. Multiple tracings were obtained and averaged for each image. Moreover, since tooth movement can also increase variability, multiple images of the same sample were also analyzed, if necessary. The area measurements from both molars were combined, and from these combined area measurements, a ratio of exposed root area (root to the CEJ) versus enamel area was obtained. […]

The conditions of data set [3]: commercial version (Alredase), withdrawn 1996 or 1997; cited from earlier work.
The target in a further data set is T1, TNF-α (Mus musculus, UniProt P06804).
T1 construct: host or cells: diabetic mice (in vivo, endogenous TNF-α)
T1 sequence (P06804 80-235 limits assumed): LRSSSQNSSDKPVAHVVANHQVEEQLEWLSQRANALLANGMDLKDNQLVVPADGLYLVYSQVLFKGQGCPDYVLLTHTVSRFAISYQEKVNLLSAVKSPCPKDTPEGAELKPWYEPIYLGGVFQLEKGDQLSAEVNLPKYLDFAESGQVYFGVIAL
As to conditions: diabetic mice inoculated with Porphyromonas gingivalis; cited from earlier work.

The subject of another data set is diabetic mice. As to conditions: cited from earlier work.
For a further data set, the system named is crevicular PMNs. As to conditions: rats with chemically induced diabetes; cited from earlier work.

`O=C1NC(=O)C2(N1)c1cc(F)ccc1-c1ccc(F)cc12` [imirestat]: in data set [1], the “ratio of exposed root to enamel area, LPS side” value (from here on “ratio of exposed root … LPS side”) is 0.439±0.043 and the “ratio of exposed root to enamel area, PBS side” value (shortened to “ratio of exposed root … PBS side”) came out at 0.421±0.029. In addition, the alveolar bone loss result in data set [1] (result in words) is recorded as “effective in reducing alveolar bone loss”. In addition, in data set [2], the “ratio of exposed root … LPS side” value is 0.412±0.016; the “ratio of exposed root … PBS side” value was 0.439±0.0132; the “difference in the ratios between the LPS and PBS sides” value is reported as “no significant difference”.

As to `O=c1c(O)c(-c2ccc(O)c(O)c2)oc2cc(O)cc(O)c12` [quercetin], in data set [1], the “ratio of exposed root … LPS side” value was 0.448±0.057 and the “ratio of exposed root … PBS side” value came to 0.440±0.023. Besides, in data set [2], the “ratio of exposed root … LPS side” value is listed as 0.406±0.018; the “ratio of exposed root … PBS side” value amounted to 0.417±0.042; the “difference in the ratios between the LPS and PBS sides” value is “no significant difference”.

Consider `COc1ccc2c(C(=S)N(C)CC(=O)O)cccc2c1C(F)(F)F` [tolrestat], for which the “reported adverse events leading to market withdrawal” value in data set [3] was “fatalities from hepatic necrosis”. Further, the “ratio of exposed root … PBS side” value in data set [1] came to 0.435±0.010. Further, in data set [2], the “ratio of exposed root … LPS side” value turned out to be 0.435±0.039; the “ratio of exposed root … PBS side” value came out at 0.422±0.036; the “difference in the ratios between the LPS and PBS sides” value is “no significant difference”.

As for Enbrel, the prolonged cytokine expression result at TNF-α is listed as “reversal of the prolonged cytokine expression”.

Take “N-benzyloxycarbonyl-Val-Ala-Asp-fluoromethyl-ketone [z-VAD-fmk]”: the “healing parameters (fibroblast density, collagen I and III mRNA, matrix formation, bone-lining cells, new bone formation)” value with diabetic mice was “significant improvements in several healing parameters”.

Turning to “insulin: insulin administration to diabetic rats”, the “chemotactic response of crevicular PMNs to casein” value with crevicular PMNs is “reverses this decrease”.

The values are drawn from patent publication US20100292287A1, “Periodontitis treatment” (priority 2009, published 2010).
